pIC50: −log10 of the molar value.
Key:
[1] = test system: IL-6 production in primary human mesangial cells; experiment: ET-1 induced IL-6 production (ELISA) in primary human renal mesangial cells; format: cell-based; settings: 72 hours; 10 ng/mL ET-1; read-out: IC50, ET-1 stimulated IL-6 production in HRMCs
[2] = test system: hallmark gene sets in kidney tissue of g-ddY mice; experiment: Gene Set Enrichment Analysis (GSEA) of hallmark gene sets, g-ddY mouse kidney RNA-seq; format: in vivo

CCCCN(CCCC)C(=O)CN1C[C@H](c2ccc3c(c2)OCO3)[C@@H](C(=O)O)[C@@H]1c1ccc(OC)cc1 [Atrasentan, (2R,3R,4S)-4-(1,3-benzodioxol-5-yl)-1-[2-(dibutylamino)-2-oxoethyl]-2-(4-methoxyphenyl)pyrrolidine-3-carboxylic acid]
pIC50 [1]: 9.19
HALLMARK_ADIPOGENESIS NES ([2]; 10 mg/kg/day vs. control): 2.15
HALLMARK_ALLOGRAFT_REJECTION NES ([2]; 10 mg/kg/day vs. control): −2.25
HALLMARK_ANDROGEN_RESPONSE NES ([2]; 10 mg/kg/day vs. control): 0.88
HALLMARK_ANGIOGENESIS NES ([2]; 10 mg/kg/day vs. control): −1.94
HALLMARK_APICAL_JUNCTION NES ([2]; 10 mg/kg/day vs. control): −1.79
HALLMARK_APICAL_SURFACE NES ([2]; 10 mg/kg/day vs. control): −1.52
HALLMARK_APOPTOSIS NES ([2]; 10 mg/kg/day vs. control): −1.59
HALLMARK_BILE_ACID_METABOLISM NES ([2]; 10 mg/kg/day vs. control): 2.08
HALLMARK_CHOLESTEROL_HOMEOSTASIS NES ([2]; 10 mg/kg/day vs. control): 1.03
HALLMARK_COAGULATION NES ([2]; 10 mg/kg/day vs. control): −1.53
HALLMARK_COMPLEMENT NES ([2]; 10 mg/kg/day vs. control): −1.51
HALLMARK_DNA_REPAIR NES ([2]; 10 mg/kg/day vs. control): 0.79
HALLMARK_E2F_TARGETS NES ([2]; 10 mg/kg/day vs. control): −2.07
HALLMARK_EPITHELIAL_MESENCHYMAL_TRANSITION NES ([2]; 10 mg/kg/day vs. control): −2.47
HALLMARK_ESTROGEN_RESPONSE_EARLY NES ([2]; 10 mg/kg/day vs. control): −1.27
HALLMARK_ESTROGEN_RESPONSE_LATE NES ([2]; 10 mg/kg/day vs. control): −1.18
HALLMARK_FATTY_ACID_METABOLISM NES ([2]; 10 mg/kg/day vs. control): 2.25
HALLMARK_G2M_CHECKPOINT NES ([2]; 10 mg/kg/day vs. control): −2.15
HALLMARK_GLYCOLYSIS NES ([2]; 10 mg/kg/day vs. control): 1.62
HALLMARK_HEDGEHOG_SIGNALING NES ([2]; 10 mg/kg/day vs. control): −1.51
HALLMARK_HEME_METABOLISM NES ([2]; 10 mg/kg/day vs. control): 1.57
HALLMARK_HYPOXIA NES ([2]; 10 mg/kg/day vs. control): −1.38
HALLMARK_IL2_STAT5_SIGNALING NES ([2]; 10 mg/kg/day vs. control): −1.77
HALLMARK_IL6_JAK_STAT3_SIGNALING NES ([2]; 10 mg/kg/day vs. control): −2.34
HALLMARK_INFLAMMATORY_RESPONSE NES ([2]; 10 mg/kg/day vs. control): −2.34
HALLMARK_INTERFERON_ALPHA_RESPONSE NES ([2]; 10 mg/kg/day vs. control): −1.96
HALLMARK_INTERFERON_GAMMA_RESPONSE NES ([2]; 10 mg/kg/day vs. control): −2.26
HALLMARK_KRAS_SIGNALING_DN NES ([2]; 10 mg/kg/day vs. control): 1.28
HALLMARK_KRAS_SIGNALING_UP NES ([2]; 10 mg/kg/day vs. control): −2.24
HALLMARK_M ITOTIC_SPINDLE NES ([2]; 10 mg/kg/day vs. control): −1.55
HALLMARK_MTORC1_SIGNALING NES ([2]; 10 mg/kg/day vs. control): 1.11
HALLMARK_MYC_TARGETS_V1 NES ([2]; 10 mg/kg/day vs. control): −1.17
HALLMARK_MYC_TARGETS_V2 NES ([2]; 10 mg/kg/day vs. control): −0.780
HALLMARK_MYOGENESIS NES ([2]; 10 mg/kg/day vs. control): −1.19
HALLMARK_NOTCH_SIGNALING NES ([2]; 10 mg/kg/day vs. control): 0.83
HALLMARK_OXIDATIVE_PHOSPHORYLATION NES ([2]; 10 mg/kg/day vs. control): 3.06
HALLMARK_P53_PATHWAY NES ([2]; 10 mg/kg/day vs. control): −1.12
HALLMARK_PANCREAS_BETA_CELLS NES ([2]; 10 mg/kg/day vs. control): 0.85
HALLMARK_PEROXISOME NES ([2]; 10 mg/kg/day vs. control): 1.68
HALLMARK_PI3K_AKT_MTOR SIGNALING NES ([2]; 10 mg/kg/day vs. control): −0.92
HALLMARK_PROTEIN_SECRETION NES ([2]; 10 mg/kg/day vs. control): 1.06
HALLMARK_REACTIVE_OXYGEN_SPECIES_PATHWAY NES ([2]; 10 mg/kg/day vs. control): 1.59
HALLMARK_SPERMATOGENESIS NES ([2]; 10 mg/kg/day vs. control): 0.89
HALLMARK_TGF_BETA_SIGNALING NES ([2]; 10 mg/kg/day vs. control): −1.72
HALLMARK_TNFA_SIGNALING_VIA_NFKB NES ([2]; 10 mg/kg/day vs. control): −2.55
HALLMARK_UNFOLDED_PROTEIN_RESPONSE NES ([2]; 10 mg/kg/day vs. control): −0.91
HALLMARK_UV_RESPONSE_DN NES ([2]; 10 mg/kg/day vs. control): −2.19
HALLMARK_UV_RESPONSE_UP NES ([2]; 10 mg/kg/day vs. control): 1.28
HALLMARK_WNT_BETA_CATENIN_SIGNALING NES ([2]; 10 mg/kg/day vs. control): −1.02
HALLMARK_XENOBIOTIC_METABOLISM NES ([2]; 10 mg/kg/day vs. control): 1.95
HALLMARK_ADIPOGENESIS NES ([2]; 20 mg/kg/day vs. control): 2.26
HALLMARK_ALLOGRAFT_REJECTION NES ([2]; 20 mg/kg/day vs. control): −2.90
HALLMARK_ANDROGEN_RESPONSE NES ([2]; 20 mg/kg/day vs. control): 1.03
HALLMARK_ANGIOGENESIS NES ([2]; 20 mg/kg/day vs. control): −2.19
HALLMARK_APICAL_JUNCTION NES ([2]; 20 mg/kg/day vs. control): −2.24
HALLMARK_APICAL_SURFACE NES ([2]; 20 mg/kg/day vs. control): −1.67
HALLMARK_APOPTOSIS NES ([2]; 20 mg/kg/day vs. control): −2.17
HALLMARK_BILE_ACID_METABOLISM NES ([2]; 20 mg/kg/day vs. control): 2.39
HALLMARK_CHOLESTEROL_HOMEOSTASIS NES ([2]; 20 mg/kg/day vs. control): −1.03
HALLMARK_COAGULATION NES ([2]; 20 mg/kg/day vs. control): −2.11
HALLMARK_COMPLEMENT NES ([2]; 20 mg/kg/day vs. control): −2.01
HALLMARK_DNA_REPAIR NES ([2]; 20 mg/kg/day vs. control): 0.83
HALLMARK_E2F_TARGETS NES ([2]; 20 mg/kg/day vs. control): −2.34
HALLMARK_EPITHELIAL_MESENCHYMAL_TRANSITION NES ([2]; 20 mg/kg/day vs. control): −2.92
HALLMARK_ESTROGEN_RESPONSE_EARLY NES ([2]; 20 mg/kg/day vs. control): −1.52
HALLMARK_ESTROGEN_RESPONSE_LATE NES ([2]; 20 mg/kg/day vs. control): −1.37
HALLMARK_FATTY_ACID_METABOLISM NES ([2]; 20 mg/kg/day vs. control): 2.51
HALLMARK_G2M_CHECKPOINT NES ([2]; 20 mg/kg/day vs. control): −2.26
HALLMARK_GLYCOLYSIS NES ([2]; 20 mg/kg/day vs. control): 1.53
HALLMARK_HEDGEHOG_SIGNALING NES ([2]; 20 mg/kg/day vs. control): −1.72
HALLMARK_HEME_METABOLISM NES ([2]; 20 mg/kg/day vs. control): 1.92
HALLMARK_HYPOXIA NES ([2]; 20 mg/kg/day vs. control): −1.62
HALLMARK_IL2_STAT5_SIGNALING NES ([2]; 20 mg/kg/day vs. control): −2.20
HALLMARK_IL6_JAK_STAT3_SIGNALING NES ([2]; 20 mg/kg/day vs. control): −2.92
HALLMARK_INFLAMMATORY_RESPONSE NES ([2]; 20 mg/kg/day vs. control): −2.96

From patent US20210353593A1 (Chinook Therapeutics, Inc., priority 2019, published 2021)
